Source: paper PMC9233054 (Pharmaceutical development and technology, 2022)
Values after ≈ are worked out from the molar mass of the structure shown.

Legend:
[1] = HPBCD 0 mM (control, D.I. H2O), S0; ref Hamilton 2015; cited from earlier work
[2] = assay type: physicochemical; details: 1:1 cholecalciferol:HPBCD; calculated with theoretic S0
physchem = details: water, thermodynamic from solid

Q: For C=C1CC[C@H](O)C/C1=C/C=C1\CCC[C@]2(C)[C@@H]([C@H](C)CCCC(C)C)CC[C@@H]12 [cholecalciferol], which “Saturated concentration of vitamin D3 in HPBCD solution (S)” value [1] is on record?
A: 3.38×10^−8 (S0) ([Hamilton 2015]) mM

Q: What about the “Solubility increase ratio (S/S0)” value (Phase solubility study; HPBCD 0 mM (control, D.I. H2O)) of the same molecule?
A: 1

Q: What about the “Solubility increase ratio (S/S0)” value (Phase solubility study; HPBCD 10 mM) of the same molecule?
A: 5.92×10^5

Q: And the “Solubility increase ratio (S/S0)” value (Phase solubility study; HPBCD 40 mM)?
A: 1.42×10^7

Q: And the “Solubility increase ratio (S/S0)” value (Phase solubility study; HPBCD 50 mM)?
A: 2.29×10^7

Q: What about the “Solubility increase ratio (S/S0)” value (Phase solubility study; HPBCD 70 mM) of the same molecule?
A: 4.56×10^7

Q: What about the “Solubility increase ratio (S/S0)” value (Phase solubility study; HPBCD 100 mM) of the same molecule?
A: 9.30×10^7

Q: What about the “Solubility increase ratio (S/S0)” value (Phase solubility study; HPBCD 120 mM) of the same molecule?
A: 1.11×10^8

Q: What about the “Solubility increase ratio (S/S0)” value (Phase solubility study; HPBCD 150 mM) of the same molecule?
A: 1.90×10^8

Q: And the “Solubility increase ratio (S/S0)” value (Phase solubility study; HPBCD 170 mM)?
A: 2.31×10^8

Q: What about the “Solubility increase ratio (S/S0)” value (Phase solubility study; HPBCD 200 mM) of the same molecule?
A: 3.29×10^8

Q: What about the solubility increase ratio (Phase solubility study; different HPBCD molarities (Table 1)) of the same molecule?
A: enhanced by five or more orders of magnitude

Q: And the “stability constant K1:1” value [2]?
A: 71900 mM⁻¹

Q: And the solubility at 3 days (physchem)?
A: 1.6 µM (≈ 0.615 µg/mL)
